In ChEMBL document CHEMBL3580659, “One-pot multicomponent synthesis of indole incorporated thiazolylcoumarins and their antibacterial, anticancer and DNA cleavage studies” (2015):

Assays:
Type in all cases: functional
UACC-62 = assay: Cytotoxicity against human UACC62 cells assessed as cell growth level at 100 uM after 48 hrs by sulforhodamine B assay
IGROV-1 [1] = assay: Cytotoxicity against human IGROV1 cells assessed as cell growth level at 100 uM after 48 hrs by sulforhodamine B assay
A498 [2] = assay: Cytotoxicity against human A498 cells assessed as cell growth level at 100 uM after 48 hrs by sulforhodamine B assay
PC-3 [3] = assay: Cytotoxicity against human PC3 cells assessed as cell growth level at 100 uM after 48 hrs by sulforhodamine B assay
MDA-MB-468 [4] = assay: Cytotoxicity against human MDA-MB-468 cells assessed as cell growth level at 100 uM after 48 hrs by sulforhodamine B assay
NCI-H460 [5] = assay: Cytotoxicity against human NCI-H460 cells assessed as cell growth level at 10 nM after 48 hrs by sulforhodamine B assay
Malme-3M [6] = assay: Cytotoxicity against human MALME-3M cells assessed as cell growth level at 10 nM after 48 hrs by sulforhodamine B assay
MDA-MB-435 = assay: Cytotoxicity against human MDA-MB-435 cells assessed as cell growth level at 10 nM after 48 hrs by sulforhodamine B assay
SK-MEL-2 = assay: Cytotoxicity against human SK-MEL-2 cells assessed as cell growth level at 10 nM after 48 hrs by sulforhodamine B assay
IGROV-1 [7] = assay: Cytotoxicity against human IGROV1 cells assessed as cell growth level at 10 nM after 48 hrs by sulforhodamine B assay
A498 [8] = assay: Cytotoxicity against human A498 cells assessed as cell growth level at 10 nM after 48 hrs by sulforhodamine B assay
NCI-H522 = assay: Cytotoxicity against human NCI-H522 cells assessed as cell growth level at 100 nM after 48 hrs by sulforhodamine B assay
SF-268 [9] = assay: Cytotoxicity against human SF268 cells assessed as cell growth level at 100 nM after 48 hrs by sulforhodamine B assay
Malme-3M [10] = assay: Cytotoxicity against human MALME-3M cells assessed as cell growth level at 100 nM after 48 hrs by sulforhodamine B assay
SK-OV-3 = assay: Cytotoxicity against human SKOV3 cells assessed as cell growth level at 100 nM after 48 hrs by sulforhodamine B assay
ACHN = assay: Cytotoxicity against human ACHN cells assessed as cell growth level at 100 nM after 48 hrs by sulforhodamine B assay
MCF7 = assay: Cytotoxicity against human MCF7 cells assessed as cell growth level at 100 nM after 48 hrs by sulforhodamine B assay
MDA-MB-468 [11] = assay: Cytotoxicity against human MDA-MB-468 cells assessed as cell growth level at 100 nM after 48 hrs by sulforhodamine B assay
HL-60(TB) [12] = assay: Cytotoxicity against human HL-60(TB) cells assessed as cell growth level at 1 uM after 48 hrs by sulforhodamine B assay
MOLT-4 [13] = assay: Cytotoxicity against human MOLT4 cells assessed as cell growth level at 1 uM after 48 hrs by sulforhodamine B assay
A549 = assay: Cytotoxicity against human A549/ATCC cells assessed as cell growth level at 1 uM after 48 hrs by sulforhodamine B assay
HCC 2998 [14] = assay: Cytotoxicity against human HCC2998 cells assessed as cell growth level at 1 uM after 48 hrs by sulforhodamine B assay
HCT-116 = assay: Cytotoxicity against human HCT116 cells assessed as cell growth level at 1 uM after 48 hrs by sulforhodamine B assay
SK-MEL-28 = assay: Cytotoxicity against human SK-MEL-28 cells assessed as cell growth level at 10 uM after 48 hrs by sulforhodamine B assay
OVCAR-3 = assay: Cytotoxicity against human OVCAR3 cells assessed as cell growth level at 10 uM after 48 hrs by sulforhodamine B assay
PC-3 [15] = assay: Cytotoxicity against human PC3 cells assessed as cell growth level at 10 uM after 48 hrs by sulforhodamine B assay
U-251 = assay: Cytotoxicity against human U251 cells assessed as cell growth level at 1 uM after 48 hrs by sulforhodamine B assay
RXF 393 = assay: Cytotoxicity against human RXF393 cells assessed as cell growth level at 1 uM after 48 hrs by sulforhodamine B assay
SN12C = assay: Cytotoxicity against human SN12C cells assessed as cell growth level at 1 uM after 48 hrs by sulforhodamine B assay
CCRF-CEM = assay: Cytotoxicity against human CCRF-CEM cells assessed as cell growth level at 100 uM after 48 hrs by sulforhodamine B assay
MDA-MB-231 = assay: Cytotoxicity against human MDA-MB-231/ATCC cells assessed as cell growth level at 10 uM after 48 hrs by sulforhodamine B assay
T47D = assay: Cytotoxicity against human T47D cells assessed as cell growth level at 10 uM after 48 hrs by sulforhodamine B assay
HCC 2998 [16] = assay: Cytotoxicity against human HCC2998 cells after 48 hrs by sulforhodamine B assay; settings: HCC 2998, 48 h
HT-29 = assay: Cytotoxicity against human HT-29 cells after 48 hrs by sulforhodamine B assay; settings: HT-29, 48 h
NCI-H460 [17] = assay: Cytotoxicity against human NCI-H460 cells assessed as cell growth level at 100 uM after 48 hrs by sulforhodamine B assay
SW-620 = assay: Cytotoxicity against human SW620 cells assessed as cell growth level at 100 uM after 48 hrs by sulforhodamine B assay
SF-268 [18] = assay: Cytotoxicity against human SF268 cells assessed as cell growth level at 100 uM after 48 hrs by sulforhodamine B assay
SF-539 = assay: Cytotoxicity against human SF539 cells assessed as cell growth level at 100 uM after 48 hrs by sulforhodamine B assay
A498 [19] = assay: Cytotoxicity against human A498 cells after 48 hrs by sulforhodamine B assay; settings: A498, 48 h
HL-60(TB) [20] = assay: Cytotoxicity against human HL-60(TB) cells assessed as cell growth level at 10 nM after 48 hrs by sulforhodamine B assay
MOLT-4 [21] = assay: Cytotoxicity against human MOLT4 cells assessed as cell growth level at 10 nM after 48 hrs by sulforhodamine B assay
RPMI-8226 = assay: Cytotoxicity against human RPMI8226 cells assessed as cell growth level at 10 nM after 48 hrs by sulforhodamine B assay
[22] = read-out: LC50 (the source's name)
[23] = read-out: pLC50 (the source's name) (converted)

For O=c1oc2ccccc2cc1-c1csc(N/N=C/c2c[nH]c3ccccc23)n1, the Activity (UACC-62) was -27%, the Activity (IGROV-1 [1]) was -71% and the Activity (A498 [2]) was -53%. For the same molecule, the Activity (PC-3 [3]) was -20%, the Activity (MDA-MB-468 [4]) was -39% and the Activity (NCI-H460 [5]) was 79%. The Activity (Malme-3M [6]) was 100%, the Activity (MDA-MB-435) was 92% and the Activity (SK-MEL-2) was 98%. It also gave an Activity (IGROV-1 [7]) of 108%, an Activity (A498 [8]) of 95% and an Activity (NCI-H522) of 107%. For the same molecule, the Activity (SF-268 [9]) was 88%, the Activity (Malme-3M [10]) was 94% and the Activity (SK-OV-3) was 90%. For the same molecule, the Activity (ACHN) was 97%, the Activity (MCF7) was 95% and the Activity (MDA-MB-468 [11]) was 83%. For the same molecule, the Activity (HL-60(TB) [12]) was 26%, the Activity (MOLT-4 [13]) was 20% and the Activity (A549) was 68%. The Activity (HCC 2998 [14]) was 84%, the Activity (HCT-116) was 81% and the Activity (SK-MEL-28) was 54.83%. The Activity (OVCAR-3) was -80.31%, the Activity (PC-3 [15]) was -37.33% and the Activity (U-251) was 103%. It also gave an Activity (RXF 393) of 53%, an Activity (SN12C) of 45% and an Activity (CCRF-CEM) of -39%. It also gave an Activity (MDA-MB-231) of -37.04%, an Activity (T47D) of 4.07% and a GI50 (HCC 2998 [16]; read-out: GI50) of 2.82 µM. The CC50 (HCC 2998 [16]; [22]) was greater than 100 µM, the TGI (HCC 2998 [16]; read-out: TGI) was 6.8 µM and the GI50 (HCC 2998 [16]; read-out: pGI50 (converted)) was 2.82 µM. The CC50 (HCC 2998 [16]; [23]) was greater than 100 µM, the TGI (HCC 2998 [16]; read-out: pTGI (converted)) was 6.76 µM and the GI50 (HT-29; read-out: GI50) was 2.01 µM. It also gave a CC50 (HT-29; [22]) greater than 100 µM, a TGI (HT-29; read-out: TGI) of 5.55 µM and a GI50 (HT-29; read-out: pGI50 (converted)) of 2 µM. For the same molecule, the CC50 (HT-29; [23]) was greater than 100 µM, the TGI (HT-29; read-out: pTGI (converted)) was 5.5 µM and the Activity (NCI-H460 [17]) was -94%. For the same molecule, the Activity (SW-620) was -7%, the Activity (SF-268 [18]) was -21% and the Activity (SF-539) was -4%. It also gave a GI50 (A498 [19]; read-out: GI50) of 2.21 µM, a CC50 (A498 [19]; [22]) greater than 100 µM and a TGI (A498 [19]; read-out: TGI) of 8.2 µM. It also gave a GI50 (A498 [19]; read-out: pGI50 (converted)) of 2.19 µM, a CC50 (A498 [19]; [23]) greater than 100 µM and a TGI (A498 [19]; read-out: pTGI (converted)) of 8.13 µM. The Activity (HL-60(TB) [20]) was 92%, the Activity (MOLT-4 [21]) was 92% and the Activity (RPMI-8226) was 99%.
